Results: patent US20230037905A1 (Vyne Therapeutics Inc., priority 2019, published 2023)
pKd: −log10 of the molar value. Structures can show the parent of a compound that is named as a salt.

Tests used:
[1] = system: Reconstructed Human Epidermis (RHE) tissues exposed to Th2 cytokines IL-4, IL-13, IL-25; assay: Reconstructed Human Epidermis (RHE) Th2 AD model (StratiCELL); type: cell-based; details: 48 h
Description: Reconstructed Human Epidermis (RHE) tissues are produced and grown by StratiCELL. To generate the morphological and functional aspects of AD, RHE samples are exposed to Th2 cytokines IL-4, IL-13, IL-25. Th-2 cytokines are applied for 48 h in the culture medium of epidermis. Test formulations are applied simultaneously with the cytokines on the stratum corneum of the epidermis during the same 48 h. The tissue morphology is assessed by histology and hemalum/eosin (H/E) staining—quantification of a fluorescent dye (biotin) diffusion through the epidermis in order to evaluate the barrier function.

[2] = Solubility test (saturated solutions, HPLC); type: physicochemical
Description: An additional analysis is performed after 48 hours of agitation to confirm the determined saturated concentration.

[3] = Compatibility test of tofacitinib citrate with excipients at 60° C.; type: physicochemical; design: TOF assay: unit not given here; details: 10 weeks at 60° C.
Description: The mixtures are tightly closed and exposed to 60° C. protected from light.

[4] = Stability of Tofacitinib Citrate solution in 50 mM citrate buffer of different pH at 60° C.; type: physicochemical; design: unit not given here
Text: In one or more embodiments the pH, is about 4, about 4.1, about 4.2, about 4.3, about 4.4, about 4.5, about 4.6, about 4.7, about 4.8, about 4.9 or about 5.

[5] = as above; type: physicochemical; design: unit not given here; remark: listed apart in the source
in vivo = assay: in vivo; design: species or system Minipigs; details: minipig, Tofacitinib concentration
Description: Minipigs are treated topically on 10% body surface area, once daily for 14 days with the tested formulation.

[6] = Chemical stability of formulations (HPLC); type: physicochemical
Description: Where another active agent such as fingolimod is present in the formulations the samples are analysed for that active agent and its degradation products by HPLC. […] The gradient elution is employed.

[7] = molecular target: S1P receptors (S1P1 and S1P3-5); details: four of the five S1P receptors (S1P1 and S1P3-5); read-out: affinity; cited from earlier work
[8] = in Water + Carboxymethylcellulose
[9] = in Water + Glyceryl Monosteatate

CCCCCCCCc1ccc(CCC(N)(CO)CO)cc1 [Fingolimod, 2-amino-2-[2-(4-octylphenyl)ethyl]propane-1,3-diol]
barrier function (biotin immunofluorescence) ([1]; 0.001% w/w): reduced the Th2-induced barrier alteration
tissue morphology (histology, H/E staining) ([1]; 0.001% w/w): reduced the Th2-induced barrier alteration
barrier function (biotin immunofluorescence) ([1]; 0.01% w/w): reduced the Th2-induced barrier alteration
tissue morphology (histology, H/E staining) ([1]; 0.01% w/w): reduced the Th2-induced barrier alteration
tissue morphology (histology, H/E staining) ([1]; 0.1% w/w): increased fragilization was observed with junction/adhesion loss and disorganization of cell layers
barrier function (biotin immunofluorescence) ([1]; 0.1%): Increased barrier alteration
tissue morphology (histology, H/E staining) ([1]; 1% w/w): increased fragilization was observed with junction/adhesion loss and disorganization of cell layers
barrier function (biotin immunofluorescence) ([1]; 1%): Increased barrier alteration

C[C@@H]1CCN(C(=O)CC#N)C[C@@H]1N(C)c1ncnc2[nH]ccc12 [Tofacitinib citrate]
Solubility of TOF Citrate ([2]; in 0.02% HCl): 4.06 mg/g
Solubility of TOF Citrate ([2]; in 0.05% NaOH (degraded)): not detected
Solubility of TOF Citrate ([2]; in Benzyl Alcohol): 0.81 mg/g
Solubility of TOF Citrate ([2]; in DMSO): >150 mg/g
solubilized tofacitinib citrate concentration ([2]; in DMSO): > 15%
Solubility of TOF Citrate ([2]; in Diisopropyl adipate): 0.02 mg/g
Solubility of TOF Citrate ([2]; in Dimethyl isosorbate): 1.27 mg/g
Solubility of TOF Citrate ([2]; in Ethanol): 0.61 mg/g
Solubility of TOF Citrate ([2]; in Glycerin): 0.97 mg/g
Solubility of TOF Citrate ([2]; in Hexylene Glycol): 0.25 mg/g
Solubility of TOF Citrate ([2]; in Isopropyl Alcohol): 0.24 mg/g
Solubility of TOF Citrate ([2]; in Isopropyl myristate): <0.02 mg/g
Solubility of TOF Citrate ([2]; in MCT oil (Caprylic/capric triglycerides)): <0.01 mg/g
Solubility of TOF Citrate ([2]; in Oleyl alcohol): 0.09 mg/g
Solubility of TOF Citrate ([2]; in PPG-11 Stearyl ether): 0.02 mg/g
Solubility of TOF Citrate ([2]; in Propylene Glycol): 1.70 mg/g
Solubility of TOF Citrate ([2]; in Transcutol): 2.01 mg/g
Solubility of TOF Citrate ([2]; in Water): 2.77 mg/g
Solubility of TOF Citrate ([2]; in polyethylene glycol 200): 5.16 mg/g
solubilized tofacitinib citrate concentration ([2]; in polyethylene glycol 200): about 0.5%
Solubility of TOF Citrate ([2]; in polyethylene glycol 400): 6.96 mg/g
solubilized tofacitinib citrate concentration ([2]; in polyethylene glycol 400): about 0.7%
Deg. products ([3]; in MCT oil): 0.09
TOF assay ([3]; in MCT oil): 108.4
Deg. products [3, 8]: 9.33
TOF assay [3, 8]: 48.1
Deg. products ([3]; in Water + Ceteareth 20): 4.57
TOF assay ([3]; in Water + Ceteareth 20): 67.7
Deg. products ([3]; in Water + Glycerin): 10.16
TOF assay ([3]; in Water + Glycerin): 63.9
Deg. products [3, 9]: 2.62
TOF assay [3, 9]: 75.6
Deg. products ([3]; in Water + Hypermellose K100M): 4.64
TOF assay ([3]; in Water + Hypermellose K100M): 14.2
Deg. products ([3]; in Water + Methyl Paraben): 4.14
TOF assay ([3]; in Water + Methyl Paraben): 81.6
Deg. products ([3]; in Water + Propyl Paraben): 3.01
TOF assay ([3]; in Water + Propyl Paraben): 93.0
Deg. products ([3]; in Water + Stearic Acid): 3.64
TOF assay ([3]; in Water + Stearic Acid): 79.4
Deg. products ([3]; in Water + Stearyl Alcohol): 2.21
TOF assay ([3]; in Water + Stearyl Alcohol): 73.1
Deg. products ([3]; in Water + Xanthan Gum): 28.23
TOF assay ([3]; in Water + Xanthan Gum): 7.7
Deg. products ([3]; in Water): 1.90
TOF assay ([3]; in Water): 106.7
TOF assay ([4]; pH 4, 2 w): 106.31
TOF assay ([4]; pH 4.5, 1 w): 108.64
TOF assay ([4]; pH 4.5, 2 w): 99.84
RRT 1.42 (impurity) ([4]; pH 5, 2 w): 0.14
TOF assay ([4]; pH 5, 2 w): 101.02
RRT 0.48 (impurity) ([5]; pH 3, 1 w): 0.10
RRT 0.89 (impurity) ([5]; pH 3, 1 w): 0.10
TOF assay ([5]; pH 3, 1 w): 93.92
RRT 0.40 (impurity) ([5]; pH 3, 2 w): 0.09
RRT 0.48 (impurity) ([5]; pH 3, 2 w): 0.11
RRT 0.89 (impurity) ([5]; pH 3, 2 w): 0.09
RRT 1.42 (impurity) ([5]; pH 3, 2 w): 0.09
TOF assay ([5]; pH 3, 2 w): 100.09
Imp B ([5]; pH 4, 1 w): 0.09
TOF assay ([5]; pH 4, 1 w): 102.57
RRT 1.42 (impurity) ([5]; pH 5, 1 w): 0.14
RRT 0.80 (impurity) ([5]; pH 5, 2 w): 0.08
TOF assay ([5]; pH 6, 1 w): 99.67
RRT 0.89 (impurity) ([5]; pH 6, 2 w): 0.09
TOF assay ([5]; pH 6, 2 w): 100.09

C[C@@H]1CCN(C(=O)CC#N)C[C@@H]1N(C)c1ncnc2[nH]ccc12 [Tofacitinib]
concentration at 4 h (in vivo): 1.48 ng/mL
concentration at 8 h (in vivo): 1.32 ng/mL
concentration at 24 h (in vivo): 0.688 ng/mL

CCCCCCCCc1ccc(CCC(N)(CO)CO)cc1 [fingolimod hydrochloride, Fingolimod hydrochloride]
chemical stability of active agent in formulation [6]: stable at 5° C., 40 °C and 50 °C

CCCCCCCCc1ccc(CC[C@](N)(CO)COP(=O)(O)O)cc1 [fingolimod-phosphate]
pKd [7]: 8.51 to 9.52
